Reference: patent US5206238A, “Cholecystokinin antagonists” (Merck & Co., Inc., priority 1992, dated 1993)

Key:
DBA2 mice [1] = settings: rodents, literature (Crawley); cited from earlier work
DBA2 mice [2] = experiment: black/white exploration test (animal model of anxiety); format: in vivo; settings: for active dose range: anxiolytic properties in mice
Text: The black/white exploration test [Crawley et al. Pharmacology, Biochemistry and Behav. 13, 167 (1980)] is a simple animal model of anxiety. Rodents placed in a two compartment box which consists of a brightly lit, white painted side and a dimly lit, black painted side, display a marked preference for the black side of the apparatus. This behavior is caused by the aversive properties of the brightly lit, white painted section. Classical anxiolytic drugs [such as diazepam, see Crawley, supra] and novel anxiolytic drugs [such as 5HT3 antagonists, see Jones et al. Br. J. Pharm.
A. Naive male DBA2 mice (25-30) were housed on a reversed light/dark cycle and tested during the dark phase of the cycle under dim red light. The apparatus consisted of an open topped box (40 cm long×27 cm wide×27 cm high) divided into a small area (2/5) and a large area (3/5) by a partition that extended 20 cm above the walls. There was a 7.5×7.5 cm opening in the partition at floor level. The small compartment was painted black and the large compartment white. The floor of each compartment was marked into 9 cm squares. The white compartment was illuminated by a 100 W tungsten bulb 17 cm above the box and the black compartment by a similarly placed 60 W red bulb.
Animals that had been injected with drug or vehicle were placed individually into the center of the white area and their behavior observed during a 5 minute period by remote video recording. Four behavioral parameters were recorded every minute: the number of exploratory rears in the white and black sections, the number of line crossings in the black and white sections, the number of transitions between the two sections and the time spent in the black and white sections. Animals were tested in treatment groups of 8-10 and vehicle controls were run on each test day. Data were analysed by ANOVA and Dunnetts test.

Sprague Dawley rats [3] = experiment: exploratory/locomotor activity in automated activity cages; format: in vivo, rat
Protocol: B. The effects of CCK-8 and compound A on the exploratory behavior of the rat were examined in automated activity cages and by direct observation. […] [See Crawley, Pharm. Biochem & Behav. 20, 23-27 (1984).]
Male Sprague Dawley rats were injected ([…].) with CCK-8 and immediately placed in automated activity cages. Activity was measured for 30 minutes past injection.
Male SD rats were injected (s.c.) with the CCK antagonist compound A (0.0001-10 mg/kg) and immediately placed in the automated activity cages.

rats = experiment: direct observation of motoric behaviors in a novel environment (perspex cage); format: in vivo, rat; settings: 0.1 mg/kg, 15 minute period 15 minutes after treatment
Protocol: In order to assess further the effect of Compound A on exploration in a novel environment, the motoric hehaviors of rats placed in a perspex cage was recorded by direct observation for a 15 minute period 15 minutes after treatment with Compound A.
Experimenters (unaware of the treatments the animals had received) recorded the frequency and duration of rearing, sniffing, grooming and cage crossing using a keypad interfaced to a BBC microcomputer.

Sprague Dawley rats [4] = settings: cited from earlier work
humans = settings: reported studies; cited from earlier work

Compound: CN1C(=O)CN=C(c2ccccc2)c2cc(Cl)ccc21 [diazepam]
- preference of the animal for the black dimly lit side (DBA2 mice [1]): decrease the preference

Compound: Cc1cccc(NC(=O)N[C@@H]2N=C(c3ccccc3)c3ccccc3N(C)C2=O)c1 [Compound B, (R)-N-(2,3-dihydro-1-methyl-2-oxo-5-phenyl-1H-1,4-benzodiazepin-3-yl)-N'-(3-methylphenyl)urea]
- active dose range (DBA2 mice [2]): 0.005 to 0.05 µg/kg
- difference in time spent in the black and white side (DBA2 mice [2]; dose of 0.005 ug/kg, male DBA2 mice): decreased
- preference for rearing in the black side (DBA2 mice [2]; dose of 0.05 ug/kg, male DBA2 mice): abolished

Compound: CN1C(=O)[C@@H](NC(=O)c2cc3ccccc3[nH]2)N=C(c2ccccc2)c2ccccc21 [Compound A, 3(S)-(-)-1,3-dihydro-3-(2-indolecarbonylamino)-1-methyl-5-phenyl-2H-1,4-benzodiazepin-2-one]
- preference for locomotion (line crossings) in the black side (DBA2 mice [2]; 0.5, 5.0 and 500 ug/kg, male DBA2 mice): abolished
- difference in time spent in the black and white side (DBA2 mice [2]; 5.0 and 500 ug/kg, male DBA2 mice): abolished
- active dose range (DBA2 mice [2]): 0.05 to 5.0 µg/kg
- preference for rearing in the black side (DBA2 mice [2]; doses of 0.05, 0.5, 5.0 and 500 ug/kg, male DBA2 mice): significantly decreased
- habituation and period of exploratory activity (Sprague Dawley rats [3]; 0.0001-10 mg/kg s.c.): delayed habituation and prolonged the period of exploratory activity
- levels of activity at 25 minutes (Sprague Dawley rats [3]; 0.1 mg/kg s.c., 25 minutes): significantly above controls
- effect on activity at 25 minutes (Sprague Dawley rats [3]; higher and lower doses than 0.1 mg/kg s.c. (bell-shaped dose response)): no significant effect
- cage crossing (rats): significantly increased
- rearing (rats): significantly increased
- sniffing (rats): significantly increased

Compound: CCK-8: carboxylterminal octapeptide of CCK-33, a naturally-occurring neuropeptide and the minimum fully active sequence
- locomotor activity (Sprague Dawley rats [3]; 0.5-16 μg/kg i.p., 30 minutes past injection, novel environment): dose-dependently decreased
- exploratory behavior in a novel environment (Sprague Dawley rats [4]; exogenous CCK-8, literature (Crawley)): decreases exploratory behavior
- induction of panic (humans): induced gastrointestinal effects but not panic symptoms

Compound: CNC1=Nc2ccc(Cl)cc2C(c2ccccc2)=[N+]([O-])C1 [chlordiazepoxide]
- spontaneous locomotor activity in a novel environment (Sprague Dawley rats [4]; literature (McElroy et al.)): increases spontaneous locomotor activity

Compound: CCK-4
- induction of panic (humans): induce panic
